Measurements published in article PMC4669708 (Cell Death & Disease, 2015).

Legend:
Experiment in all cases: c-ponatinib pulldown LC-MS/MS
Format in all cases: binding
[1] = target: CDK16 (Homo sapiens, UniProt Q00536)
Experimental: (§1) Drug-affinity matrices were prepared as described previously.[51] In brief, 25 nmol of c-ponatinib were immobilized on 50 μl NHS-activated Sepharose 4 Fast Flow beads (GE Healthcare Bio-Sciences AB, Uppsala, Sweden). 10 mg whole cell lysate was used as protein input per replicate. Affinity chromatography and elution were performed in duplicate. After elution, the enriched proteins were reduced with dithiothreitol (DTT) and cysteine residues were alkylated by incubation with iodoacetamide. The samples were digested with modified porcine trypsin (Promega). Five percent of the digested eluates were purified and concentrated by C18 reversed-phase material. Subsequently, samples were analyzed in duplicates by gel-free one-dimensional LCMS.
(§2) Precursor and MS/MS peaks were extracted from the RAW files and saved in the MGF format using msconvert tool (ProteoWizard Library v2.1.2708, www.proteowizard.sourceforge.net) for subsequent protein identification. An initial database search was performed with broader mass tolerance and conservative score threshold to re-calibrate the mass lists for optimal final protein identification. For the initial protein database search, Mascot (www.matrixscience.com, v2.3.02) was used. Error tolerances on the precursor and fragment ions were ±10 p.p.m. and ±0.6 Da, respectively, and the database search limited to fully-tryptic peptides with maximum one missed cleavage, carbamidomethyl cysteine and methionine oxidation set as fixed and variable modifications, respectively. The Mascot peptide ion score threshold was set to 30, and at least three peptide identifications per protein were required. Searches were performed against the human UniProtKB/SwissProt database (www.uniprot.org release 2013.01) including all protein isoforms. The initial peptide identifications were used to deduce independent linear transformations for precursor and fragment masses that would minimize the mean square deviation of measured masses from theoretical. Re-calibrated mass list files were searched against the same human protein database by a combination of Mascot and Phenyx (GeneBio SA, Geneva, Switzerland; version 2.5.14) search engines using narrower mass tolerances (±4 p.p.m. and ±0.3 Da). One missed tryptic cleavage site was allowed. Carbamidomethyl cysteine was set as a fixed modification and oxidized methionine was set as a variable modification. To validate the proteins, Mascot and Phenyx output files were processed by internally developed parsers. Proteins with ≥2 unique peptides above a score T1, or with a single peptide above a score T2 were selected as unambiguous identifications. Additional peptides for these validated proteins with score >T3 were also accepted. For Mascot searches, the following thresholds were used: T1=14, T2=40 and T3=10; Phenyx thresholds were set to 4.2, 4.75 and 3.5, respectively (P-value<10^−3). The validated proteins retrieved by the two algorithms were merged, any spectral conflicts discarded and grouped according to shared peptides. A false discovery rate of <1% for protein identifications and <0.1% for peptides (including the ones exported with lower scores) was determined by applying the same procedure against a database of reversed protein sequences. […] In addition to Mascot protein scores that were proposed as an estimate of protein abundance by the original algorithm, the modified version also included Phenyx protein scores and spectral counts. The algorithm first estimated three measure-specific P-values for each putative interaction, and, in contrast to,[69] P-value calculation utilized the quantiles of the measurements rather than the original data. The Fisher's method was used to combine the three resulting P-values into a single P-value for drug–protein interaction specificity. We have also correlated interaction P-values with the magnitude of competition effect represented by the fold reduction of spectral counts on free compound competition. […]

[2] = target: CDK5 (Homo sapiens, UniProt Q00535)
Sequence of CDK5 (Q00535 whole entry): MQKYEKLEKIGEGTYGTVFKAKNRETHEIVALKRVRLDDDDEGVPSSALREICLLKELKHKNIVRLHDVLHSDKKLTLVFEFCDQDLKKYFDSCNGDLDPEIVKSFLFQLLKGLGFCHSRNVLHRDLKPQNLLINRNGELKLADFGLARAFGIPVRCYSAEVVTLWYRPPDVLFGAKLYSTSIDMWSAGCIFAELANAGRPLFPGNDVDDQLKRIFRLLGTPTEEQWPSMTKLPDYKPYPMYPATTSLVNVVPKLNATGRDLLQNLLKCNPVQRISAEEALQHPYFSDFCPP
Experimental: as §1, §2

[3] = target: IRAK1 (Homo sapiens, UniProt P51617)
Sequence of IRAK1 (P51617 whole entry): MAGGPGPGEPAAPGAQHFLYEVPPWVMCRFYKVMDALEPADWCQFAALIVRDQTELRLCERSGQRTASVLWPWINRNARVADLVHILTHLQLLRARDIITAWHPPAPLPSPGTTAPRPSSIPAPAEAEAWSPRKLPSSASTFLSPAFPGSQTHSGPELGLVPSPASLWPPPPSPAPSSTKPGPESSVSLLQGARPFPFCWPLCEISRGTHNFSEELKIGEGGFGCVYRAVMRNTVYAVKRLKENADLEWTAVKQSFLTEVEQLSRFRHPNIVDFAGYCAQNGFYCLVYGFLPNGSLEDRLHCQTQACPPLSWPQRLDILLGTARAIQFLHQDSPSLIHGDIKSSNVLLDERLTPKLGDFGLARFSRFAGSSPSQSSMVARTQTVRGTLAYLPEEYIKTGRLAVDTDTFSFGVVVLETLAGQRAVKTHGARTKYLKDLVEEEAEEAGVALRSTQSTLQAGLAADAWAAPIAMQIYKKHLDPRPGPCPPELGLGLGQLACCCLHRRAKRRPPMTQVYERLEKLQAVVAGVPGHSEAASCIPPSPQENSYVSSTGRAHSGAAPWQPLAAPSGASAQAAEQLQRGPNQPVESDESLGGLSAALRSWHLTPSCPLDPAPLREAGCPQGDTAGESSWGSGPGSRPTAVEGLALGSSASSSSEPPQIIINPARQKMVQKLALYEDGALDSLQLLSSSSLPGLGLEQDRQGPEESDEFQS
Experimental: as §1, §2

[4] = target: CSK (Homo sapiens, UniProt P41240)
Experimental: as §1, §2

[5] = target: T1, TAB2 (Homo sapiens, UniProt Q9NYJ8)
T1 sequence (Q9NYJ8 1-693): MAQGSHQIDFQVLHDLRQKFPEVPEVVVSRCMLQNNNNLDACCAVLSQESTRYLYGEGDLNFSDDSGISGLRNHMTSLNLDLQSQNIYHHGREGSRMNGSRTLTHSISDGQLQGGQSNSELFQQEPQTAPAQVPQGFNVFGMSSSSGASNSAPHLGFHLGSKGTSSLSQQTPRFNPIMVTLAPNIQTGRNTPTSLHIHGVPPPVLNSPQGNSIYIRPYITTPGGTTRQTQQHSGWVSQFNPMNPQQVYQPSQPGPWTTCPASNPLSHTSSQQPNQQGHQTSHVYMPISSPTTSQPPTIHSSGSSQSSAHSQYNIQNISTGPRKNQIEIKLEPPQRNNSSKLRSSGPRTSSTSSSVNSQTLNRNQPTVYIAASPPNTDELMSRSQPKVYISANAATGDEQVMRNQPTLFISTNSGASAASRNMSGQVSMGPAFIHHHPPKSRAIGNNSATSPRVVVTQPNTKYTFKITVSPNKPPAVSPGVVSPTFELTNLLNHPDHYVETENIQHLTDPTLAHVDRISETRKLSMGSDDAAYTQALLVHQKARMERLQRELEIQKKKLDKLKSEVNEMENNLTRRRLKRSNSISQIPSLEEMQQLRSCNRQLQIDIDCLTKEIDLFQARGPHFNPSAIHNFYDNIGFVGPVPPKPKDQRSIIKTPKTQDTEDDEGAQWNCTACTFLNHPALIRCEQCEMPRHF
T1 sequence (O43318 1-606 partner): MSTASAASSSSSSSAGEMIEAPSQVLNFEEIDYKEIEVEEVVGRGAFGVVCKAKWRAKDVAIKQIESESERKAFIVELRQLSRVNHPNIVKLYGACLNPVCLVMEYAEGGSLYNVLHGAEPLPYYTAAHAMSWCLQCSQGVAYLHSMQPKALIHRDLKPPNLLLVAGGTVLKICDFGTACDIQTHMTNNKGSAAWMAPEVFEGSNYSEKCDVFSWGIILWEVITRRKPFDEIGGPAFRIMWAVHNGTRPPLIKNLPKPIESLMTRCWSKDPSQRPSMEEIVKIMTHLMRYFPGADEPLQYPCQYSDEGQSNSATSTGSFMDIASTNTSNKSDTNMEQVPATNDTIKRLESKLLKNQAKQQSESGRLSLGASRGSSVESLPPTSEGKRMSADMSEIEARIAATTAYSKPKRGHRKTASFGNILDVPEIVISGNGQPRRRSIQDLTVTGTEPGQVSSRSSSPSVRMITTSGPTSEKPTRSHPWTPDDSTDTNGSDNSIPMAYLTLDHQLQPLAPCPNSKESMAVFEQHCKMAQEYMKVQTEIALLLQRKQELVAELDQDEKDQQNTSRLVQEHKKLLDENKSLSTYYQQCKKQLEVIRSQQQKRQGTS
Experimental: as §1, §2

Sequence of CDK16 (Q00536 whole entry): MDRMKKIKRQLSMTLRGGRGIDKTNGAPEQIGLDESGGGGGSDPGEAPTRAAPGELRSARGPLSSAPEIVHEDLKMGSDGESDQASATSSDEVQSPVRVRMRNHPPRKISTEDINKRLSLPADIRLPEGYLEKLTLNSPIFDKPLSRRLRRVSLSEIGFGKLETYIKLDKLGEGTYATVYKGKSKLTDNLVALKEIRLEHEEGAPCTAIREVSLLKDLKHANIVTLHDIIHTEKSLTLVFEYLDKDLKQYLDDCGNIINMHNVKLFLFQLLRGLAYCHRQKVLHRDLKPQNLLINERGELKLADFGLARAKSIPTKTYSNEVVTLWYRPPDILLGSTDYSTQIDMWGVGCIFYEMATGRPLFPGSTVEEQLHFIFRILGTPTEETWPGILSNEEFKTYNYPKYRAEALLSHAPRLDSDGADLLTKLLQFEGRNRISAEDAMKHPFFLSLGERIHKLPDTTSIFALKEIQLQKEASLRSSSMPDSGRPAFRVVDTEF

Av. SC comp. ([1]; + free ponatinib): 1.25
Total SC comp. ([1]; + free ponatinib): 5
Av. SC ([1]; no competitor): 10.75
Total SC ([1]; no competitor): 43
Av. SC comp. ([2]; + free ponatinib): 2.75
Total SC comp. ([2]; + free ponatinib): 11
Av. SC ([2]; no competitor): 7.25
Total SC ([2]; no competitor): 29
Av. SC comp. ([3]; + free ponatinib): 4
Total SC comp. ([3]; + free ponatinib): 16
Av. SC ([3]; no competitor): 24.25
Total SC ([3]; no competitor): 97
Av. SC comp. ([4]; + free ponatinib): 4.5
Total SC comp. ([4]; + free ponatinib): 18
Av. SC ([4]; no competitor): 52.25
Total SC ([4]; no competitor): 209
Av. SC comp. ([5]; + free ponatinib): 0
Total SC comp. ([5]; + free ponatinib): 0
Av. SC ([5]; no competitor): 2.5
Total SC ([5]; no competitor): 10
SMILES: Cc1ccc(C(=O)Nc2ccc(CN3CCN(CCCN)CC3)c(C(F)(F)F)c2)cc1C#Cc1cnc2cccnn12 [c-ponatinib]
